This is an account of results in US20240217979A1, “GluN2 Subunit Selective Antagonists of the N-Methyl-D-Aspartate Receptors” (Emory University, priority 2021, published 2024).

Type in all cases: cell-based
One assay deals with T1, rat GluN1/GluN2A (Rattus norvegicus, UniProt Q00959).
T1 construct: expressed in transfected cells; host or cells: Xenopus laevis oocytes (cRNA injection, GluN1/GluN2 ratio 1:2)
The assay can be described thus: Two-electrode voltage-clamp recording in Xenopus laevis oocytes expressing recombinant rat GluN1/GluN2A. The conditions noted are these: current ratio reported for 10 μM test compound (footnote c). On the procedure:
(§1) Two-electrode voltage-clamp recording was performed in Xenopus laevis oocytes injected with mRNA to express recombinant rat GluN1/GluN2A, GluN1/GluN2B, GluN1/GluN2C, and GluN1/GluN2D. cDNAs for rat NMDA subunits GluN1-la (GenBank U08261; hereafter GluN1), GluN2A (GenBank D13211), GluN2B (GenBank U11419), GluN2C (GenBank M91563), and GluN2D (GenBank L31611) were provided by Drs. S. Heinemann from Salk Institute, S. Nakanishi from Kyoto University, and P. Seeburg from the University of Heidelberg. An automatic injector (Nanoject II, Drummond Scientific) was used for cRNA injection using the pipettes filled with mineral oil. The cRNA that transcribed in vitro via the mMessage Machine kit (Ambion) was diluted with nuclease-free water, and then injected at a GluN1/GluN2 ratio of 1:2. The oocytes were stored in Barth's solution that contained 88 mM NaCl, 5.0 mM Tris-HCl, 2.4 mM NaHCO3, 1.0 mM KCl, 0.84 mM MgSO4, 0.41 mM CaCl2), 0.33 mM Ca(NO3)2, 0.1 mg/ml gentamycin sulfate, 1.0 U/ml penicillin, and 1 μg/ml streptomycin at pH 7.4 and temperatures of 15-17° C. for two to five days before the two-electrode voltage-clamp recordings.
(§2) During recording, the oocytes were placed in a perfusion chamber and continually washed with the recording solution containing 90 mM NaCl, 1.0 mM KCl, 0.50 mM BaCl2, 0.005 mM EDTA, and 10 mM HEPES at pH 7.4 and a temperature of 23° C. Glass electrodes with a tip resistance of 0.5 to 2.5 MΩ were obtained from thin-walled glass capillary tubes. Voltage electrodes and current electrodes were filled with 0.3 M and 3.0 M KCl, respectively. The recordings were executed with the oocytes membrane potential holding at −40 mV by an OC-725 amplifier (Warner Instrument Co.). All compounds were dissolved in dimethyl sulfoxide (DMSO) as 20 mM stock solutions and further diluted to reach the desired concentration (0.05-0.5% (vol/vol) DMSO) in recording solution comprised of 30 µM glycine and 100 µM glutamate. In general, each compound was tested in multiple oocytes. To evaluate the inhibitory efficacy of the compounds, concentration-response curves were plotted using the average two-electrode voltage-clamp recording results and fitted by the following equation:
(§3) response=100/{1+[(inhibitor concentration)/IC50]^N} • where IC50 is the concentration of compound that inhibit half maximal of the current response and N is the Hill slope.
Background: In two-electrode clamp one electrode senses voltage and the other passes current.

The target in a further assay is T2, rat GluN1/GluN2B (Rattus norvegicus, UniProt Q00960).
T2 construct: expressed in transfected cells; host or cells: Xenopus laevis oocytes (cRNA injection, GluN1/GluN2 ratio 1:2)
T2 sequence (Q00960 27-1482, other chains not shown): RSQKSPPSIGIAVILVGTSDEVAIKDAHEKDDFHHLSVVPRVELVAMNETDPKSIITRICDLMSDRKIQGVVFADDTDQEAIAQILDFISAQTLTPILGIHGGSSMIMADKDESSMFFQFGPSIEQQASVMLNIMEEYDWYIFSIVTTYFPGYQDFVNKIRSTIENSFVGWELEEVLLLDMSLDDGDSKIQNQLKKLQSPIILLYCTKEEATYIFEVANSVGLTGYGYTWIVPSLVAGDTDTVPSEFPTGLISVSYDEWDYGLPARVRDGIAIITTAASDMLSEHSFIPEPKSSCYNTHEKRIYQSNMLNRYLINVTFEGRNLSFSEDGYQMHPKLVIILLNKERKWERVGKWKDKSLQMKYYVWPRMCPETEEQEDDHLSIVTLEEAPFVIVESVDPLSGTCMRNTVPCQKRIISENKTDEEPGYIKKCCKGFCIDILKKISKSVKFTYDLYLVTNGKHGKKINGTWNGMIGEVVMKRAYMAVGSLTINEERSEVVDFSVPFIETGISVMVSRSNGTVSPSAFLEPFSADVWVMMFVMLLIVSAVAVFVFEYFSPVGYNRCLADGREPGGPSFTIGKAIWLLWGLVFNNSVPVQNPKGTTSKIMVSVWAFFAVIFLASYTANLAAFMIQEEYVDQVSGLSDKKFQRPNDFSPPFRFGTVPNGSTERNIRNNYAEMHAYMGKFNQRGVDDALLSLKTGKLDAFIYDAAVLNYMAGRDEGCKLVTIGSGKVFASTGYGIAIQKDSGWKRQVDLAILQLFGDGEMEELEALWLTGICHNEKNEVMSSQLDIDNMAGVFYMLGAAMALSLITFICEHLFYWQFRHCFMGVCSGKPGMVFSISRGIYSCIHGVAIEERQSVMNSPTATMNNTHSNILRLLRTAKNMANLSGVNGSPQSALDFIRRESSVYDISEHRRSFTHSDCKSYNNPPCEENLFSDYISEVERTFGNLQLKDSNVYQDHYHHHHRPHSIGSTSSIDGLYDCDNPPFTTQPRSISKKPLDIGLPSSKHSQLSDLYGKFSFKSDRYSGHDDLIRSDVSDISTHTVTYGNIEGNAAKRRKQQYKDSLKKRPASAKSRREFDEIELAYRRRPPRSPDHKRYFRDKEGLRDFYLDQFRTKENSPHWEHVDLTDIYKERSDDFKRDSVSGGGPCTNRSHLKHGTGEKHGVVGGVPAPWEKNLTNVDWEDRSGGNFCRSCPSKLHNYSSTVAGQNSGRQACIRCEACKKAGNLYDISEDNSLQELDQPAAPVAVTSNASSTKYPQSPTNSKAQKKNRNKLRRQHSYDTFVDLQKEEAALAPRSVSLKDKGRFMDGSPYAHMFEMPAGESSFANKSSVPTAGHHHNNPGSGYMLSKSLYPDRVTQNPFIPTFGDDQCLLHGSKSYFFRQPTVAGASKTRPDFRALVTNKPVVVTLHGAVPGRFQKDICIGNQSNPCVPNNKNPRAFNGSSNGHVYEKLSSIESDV
Nature of the assay: Two-electrode voltage-clamp recording in Xenopus laevis oocytes expressing recombinant rat GluN1/GluN2B. The conditions noted are these: current ratio reported for 10 μM test compound (footnote c). As to the method:
as §1, §2, §3

The target of assay [1] is T3, rat GluN1/GluN2C (Rattus norvegicus, UniProt P35439+Q00961).
T3 construct: expressed in transfected cells; host or cells: Xenopus laevis oocytes (cRNA injection, GluN1/GluN2 ratio 1:2)
T3 sequence (Q00961 20-1237, other chains not shown): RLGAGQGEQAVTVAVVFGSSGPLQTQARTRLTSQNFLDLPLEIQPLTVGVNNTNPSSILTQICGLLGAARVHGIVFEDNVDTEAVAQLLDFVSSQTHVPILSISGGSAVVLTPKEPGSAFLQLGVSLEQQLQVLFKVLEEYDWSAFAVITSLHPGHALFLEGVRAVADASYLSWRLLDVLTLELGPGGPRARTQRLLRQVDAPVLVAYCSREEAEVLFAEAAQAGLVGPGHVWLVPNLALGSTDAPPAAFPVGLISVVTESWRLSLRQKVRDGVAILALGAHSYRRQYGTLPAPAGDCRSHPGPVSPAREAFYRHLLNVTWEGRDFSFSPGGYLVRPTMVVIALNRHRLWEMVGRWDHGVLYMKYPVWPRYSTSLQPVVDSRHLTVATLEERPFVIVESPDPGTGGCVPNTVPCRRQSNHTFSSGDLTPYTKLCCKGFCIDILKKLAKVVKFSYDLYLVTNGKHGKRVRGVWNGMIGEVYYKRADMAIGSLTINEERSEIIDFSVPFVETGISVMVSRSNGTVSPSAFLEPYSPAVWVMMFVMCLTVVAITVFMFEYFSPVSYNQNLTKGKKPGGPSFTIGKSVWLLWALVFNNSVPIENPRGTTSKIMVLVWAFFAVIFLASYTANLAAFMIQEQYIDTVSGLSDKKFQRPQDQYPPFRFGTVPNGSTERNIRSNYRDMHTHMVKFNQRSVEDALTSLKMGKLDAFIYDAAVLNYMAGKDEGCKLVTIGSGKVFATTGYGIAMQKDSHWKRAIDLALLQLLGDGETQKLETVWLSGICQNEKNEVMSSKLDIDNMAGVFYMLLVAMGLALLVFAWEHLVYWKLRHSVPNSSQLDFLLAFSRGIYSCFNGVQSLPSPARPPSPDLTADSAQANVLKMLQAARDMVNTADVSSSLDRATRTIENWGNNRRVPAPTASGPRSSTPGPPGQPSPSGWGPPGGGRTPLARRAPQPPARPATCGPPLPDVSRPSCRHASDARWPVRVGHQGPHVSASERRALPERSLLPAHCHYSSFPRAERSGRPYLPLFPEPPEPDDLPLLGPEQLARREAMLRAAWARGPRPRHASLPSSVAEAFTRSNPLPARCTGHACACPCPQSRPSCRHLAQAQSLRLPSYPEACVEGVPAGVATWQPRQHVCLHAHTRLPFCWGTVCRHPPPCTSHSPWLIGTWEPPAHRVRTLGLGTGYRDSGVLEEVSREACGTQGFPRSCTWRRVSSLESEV
Nature of the assay: Two-electrode voltage-clamp recording in Xenopus laevis oocytes expressing recombinant rat GluN1/GluN2C. As to conditions: Tables 1 and 2; read-out: IC50 (μM) [95% Confidence Interval] GluN2C. On the procedure: as §1, §2, §3

The target in assay [2] is T4, rat GluN1/GluN2C (Rattus norvegicus, UniProt Q00961).
T4 construct: expressed in transfected cells; host or cells: Xenopus laevis oocytes (cRNA injection, GluN1/GluN2 ratio 1:2)
T4 sequence (Q00961 20-1237, other chains not shown): as above
The description is as above. As to conditions: current ratio reported for 10 μM test compound (footnote c). On the procedure:
as §1, §2, §3

The target in assay [3] is T5, rat GluN1/GluN2D (Rattus norvegicus, UniProt Q62645).
T5 construct: expressed in transfected cells; host or cells: Xenopus laevis oocytes (cRNA injection, GluN1/GluN2 ratio 1:2)
Nature of the assay: Two-electrode voltage-clamp recording in Xenopus laevis oocytes expressing recombinant rat GluN1/GluN2D. As to conditions: current ratio reported for 10 μM test compound (footnote c). As to the method: as §1, §2, §3

Assay [4] addresses T6, rat GluN1/GluN2D (Rattus norvegicus, UniProt P35439+Q62645).
T6 construct: expressed in transfected cells; host or cells: Xenopus laevis oocytes (cRNA injection, GluN1/GluN2 ratio 1:2)
Described as above. The conditions noted are these: Tables 1 and 2; read-out: IC50 (μM) [95% Confidence Interval] GluN2D. On the procedure:
as §1, §2, §3

Structures are written as SMILES.

T1 sequence (Q00959 23-1464, other chains not shown): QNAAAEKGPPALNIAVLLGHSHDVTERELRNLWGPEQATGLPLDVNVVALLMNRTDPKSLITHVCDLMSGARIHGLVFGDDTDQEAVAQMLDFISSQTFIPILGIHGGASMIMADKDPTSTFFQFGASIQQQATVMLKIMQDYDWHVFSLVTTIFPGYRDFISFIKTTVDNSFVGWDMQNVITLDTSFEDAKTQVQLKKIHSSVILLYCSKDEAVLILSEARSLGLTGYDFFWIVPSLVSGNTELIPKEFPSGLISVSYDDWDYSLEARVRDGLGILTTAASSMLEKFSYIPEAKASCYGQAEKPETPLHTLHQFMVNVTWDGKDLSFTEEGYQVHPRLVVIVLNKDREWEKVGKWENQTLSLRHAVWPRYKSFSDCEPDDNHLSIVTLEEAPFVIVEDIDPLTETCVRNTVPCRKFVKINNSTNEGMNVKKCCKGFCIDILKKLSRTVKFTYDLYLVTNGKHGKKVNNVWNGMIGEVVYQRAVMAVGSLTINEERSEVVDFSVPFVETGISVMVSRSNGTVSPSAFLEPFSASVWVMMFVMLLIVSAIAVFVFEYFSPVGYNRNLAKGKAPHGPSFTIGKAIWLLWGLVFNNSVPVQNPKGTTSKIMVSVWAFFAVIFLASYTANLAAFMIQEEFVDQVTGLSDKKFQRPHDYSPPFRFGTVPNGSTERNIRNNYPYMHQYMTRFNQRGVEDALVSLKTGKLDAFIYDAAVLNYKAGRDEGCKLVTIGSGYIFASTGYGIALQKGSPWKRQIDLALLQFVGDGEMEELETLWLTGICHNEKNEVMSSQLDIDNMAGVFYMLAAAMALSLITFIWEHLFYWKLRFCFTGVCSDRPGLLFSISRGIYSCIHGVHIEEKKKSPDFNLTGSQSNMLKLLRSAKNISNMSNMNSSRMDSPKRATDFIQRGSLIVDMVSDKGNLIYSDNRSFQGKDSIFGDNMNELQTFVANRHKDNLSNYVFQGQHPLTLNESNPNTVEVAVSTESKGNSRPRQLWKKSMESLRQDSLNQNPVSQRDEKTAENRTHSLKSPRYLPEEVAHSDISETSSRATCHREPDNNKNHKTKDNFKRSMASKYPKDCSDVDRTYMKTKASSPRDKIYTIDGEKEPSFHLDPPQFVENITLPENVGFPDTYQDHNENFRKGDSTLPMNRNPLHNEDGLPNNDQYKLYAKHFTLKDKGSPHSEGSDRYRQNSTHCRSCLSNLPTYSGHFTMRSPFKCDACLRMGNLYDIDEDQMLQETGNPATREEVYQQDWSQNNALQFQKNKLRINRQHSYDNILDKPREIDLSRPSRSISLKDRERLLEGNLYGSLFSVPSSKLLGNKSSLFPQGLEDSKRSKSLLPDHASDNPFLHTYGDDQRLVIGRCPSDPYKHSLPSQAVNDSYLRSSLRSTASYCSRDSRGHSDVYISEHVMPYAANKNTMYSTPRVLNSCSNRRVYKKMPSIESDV

In general, IC50 refers to the midpoint of a concentration-inhibition curve. As to `O=C(O)CC(F)(F)C(=O)N1N=C(c2c(-c3ccc(Cl)cc3)c3ccncc3[nH]c2=O)CC1c1ccc(Cl)cc1` (stereo not drawn) [Compound 120, 4-[3-(4-Chlorophenyl)-5-[4-(4-chlorophenyl)-2-oxo-1H-1,7-naphthyridin-3-yl]-3,4-dihydropyrazol-2-yl]-3,3-difluoro-4-oxo-butanoic acid], on rat GluN1/GluN2A, the “Current ratio I/Icontrol (mean ± SEM, %) GluN2A” value is 77 ± 4.8^c (n = 2, 7) %. Further, at rat GluN1/GluN2B, the “Current ratio I/Icontrol (mean ± SEM, %) GluN2B” value is 82 ± 1.7^c (n = 2, 8) %. Further, the IC50 at rat GluN1/GluN2C [1] worked out at 2.1 µM; on rat GluN1/GluN2D [4], 0.8 µM. In addition, the “Current ratio I/Icontrol (mean ± SEM, %) GluN2C” value at rat GluN1/GluN2C [2] is on record as 18 ± 1.0^c (n = 3, 11) %. In addition, at rat GluN1/GluN2D [3], the “Current ratio I/Icontrol (mean ± SEM, %) GluN2D” value was 7.4 ± 0.9^c (n = 3, 10) %.
